Reference: paper PMC6943732, “The Disulfide Stress Response and Protein S-thioallylation Caused by Allicin and Diallyl Polysulfanes in Bacillus subtilis as Revealed by Transcriptomics and Proteomics” (Antioxidants, 2019)

Key:
Assay type in all cases: cell-based
SerA = target: T1, SerA (Bacillus subtilis, UniProt P35136); experiment: shotgun Orbitrap LC-MS/MS of S-thioallylated Cys peptides (+[…] Da); details: covalent, redox-sensitive Cys
T1 construct: native, in treated cells, shotgun proteomics of tryptic peptides
T1 sequence (P35136 1-525): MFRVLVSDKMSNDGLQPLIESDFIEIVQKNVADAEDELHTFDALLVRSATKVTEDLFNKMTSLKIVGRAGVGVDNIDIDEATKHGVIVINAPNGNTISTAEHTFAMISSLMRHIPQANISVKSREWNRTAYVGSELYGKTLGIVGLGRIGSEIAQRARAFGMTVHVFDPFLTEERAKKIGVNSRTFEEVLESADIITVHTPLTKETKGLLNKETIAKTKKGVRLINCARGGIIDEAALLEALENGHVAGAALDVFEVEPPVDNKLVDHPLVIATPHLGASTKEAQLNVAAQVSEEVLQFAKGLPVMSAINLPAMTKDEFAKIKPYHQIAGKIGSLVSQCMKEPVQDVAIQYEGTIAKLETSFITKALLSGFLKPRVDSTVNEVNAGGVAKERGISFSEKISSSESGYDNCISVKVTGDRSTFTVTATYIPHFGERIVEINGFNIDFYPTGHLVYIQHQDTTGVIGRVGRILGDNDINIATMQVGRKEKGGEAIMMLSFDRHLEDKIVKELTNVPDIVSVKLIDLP

PpaC = target: T2, PpaC (Bacillus subtilis, UniProt P37487); experiment: as above; details: covalent, active site Cys158
T2 construct: native, in treated cells, shotgun proteomics of tryptic peptides
T2 sequence (P37487 whole entry): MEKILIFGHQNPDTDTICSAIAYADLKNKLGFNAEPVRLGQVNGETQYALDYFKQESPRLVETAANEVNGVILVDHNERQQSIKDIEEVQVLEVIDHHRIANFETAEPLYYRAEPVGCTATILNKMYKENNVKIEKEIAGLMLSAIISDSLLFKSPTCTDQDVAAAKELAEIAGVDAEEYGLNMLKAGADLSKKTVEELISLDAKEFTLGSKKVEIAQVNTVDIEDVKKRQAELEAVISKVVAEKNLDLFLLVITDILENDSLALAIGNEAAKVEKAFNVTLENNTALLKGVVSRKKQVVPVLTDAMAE

GuaB = target: T3, GuaB (Bacillus subtilis, UniProt P21879); experiment: as above; details: covalent, active site Cys308
T3 construct: native, in treated cells, shotgun proteomics of tryptic peptides
T3 sequence (P21879 whole entry): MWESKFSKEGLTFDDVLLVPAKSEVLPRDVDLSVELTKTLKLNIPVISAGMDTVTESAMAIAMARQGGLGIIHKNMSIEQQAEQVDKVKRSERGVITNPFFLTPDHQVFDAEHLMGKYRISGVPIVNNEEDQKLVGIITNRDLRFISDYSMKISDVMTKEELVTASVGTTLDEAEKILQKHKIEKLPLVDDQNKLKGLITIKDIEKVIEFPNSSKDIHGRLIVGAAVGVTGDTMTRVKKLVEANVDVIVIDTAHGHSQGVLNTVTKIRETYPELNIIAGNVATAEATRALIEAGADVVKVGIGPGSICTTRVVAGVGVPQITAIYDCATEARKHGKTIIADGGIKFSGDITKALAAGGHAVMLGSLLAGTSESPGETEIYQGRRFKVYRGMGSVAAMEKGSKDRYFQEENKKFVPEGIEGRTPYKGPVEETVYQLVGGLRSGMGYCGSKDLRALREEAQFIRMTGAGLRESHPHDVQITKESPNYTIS

FusA (EF-G) = target: T4, FusA (EF-G) (Bacillus subtilis, UniProt P80868); experiment: as above; details: covalent, Cys239
T4 construct: native, in treated cells, shotgun proteomics of tryptic peptides
T4 sequence (P80868 2-692): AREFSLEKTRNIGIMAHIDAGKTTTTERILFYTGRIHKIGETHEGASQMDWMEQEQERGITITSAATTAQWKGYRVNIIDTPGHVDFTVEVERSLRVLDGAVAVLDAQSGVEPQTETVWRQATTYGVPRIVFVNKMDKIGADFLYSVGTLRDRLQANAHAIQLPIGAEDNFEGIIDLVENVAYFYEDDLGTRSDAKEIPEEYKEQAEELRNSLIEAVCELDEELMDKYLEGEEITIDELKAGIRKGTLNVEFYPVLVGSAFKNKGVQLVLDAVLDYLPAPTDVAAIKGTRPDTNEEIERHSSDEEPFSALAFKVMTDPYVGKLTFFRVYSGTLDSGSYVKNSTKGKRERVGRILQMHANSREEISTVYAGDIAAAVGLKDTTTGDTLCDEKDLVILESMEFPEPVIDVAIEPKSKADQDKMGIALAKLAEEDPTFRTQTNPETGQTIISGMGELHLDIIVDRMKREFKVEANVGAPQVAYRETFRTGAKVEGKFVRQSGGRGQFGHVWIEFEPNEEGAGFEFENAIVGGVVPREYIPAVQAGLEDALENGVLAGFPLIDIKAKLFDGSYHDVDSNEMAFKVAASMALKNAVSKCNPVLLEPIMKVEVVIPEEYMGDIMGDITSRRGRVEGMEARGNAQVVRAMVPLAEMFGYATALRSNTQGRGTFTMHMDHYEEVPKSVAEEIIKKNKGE

YxjG = target: T5, YxjG (Bacillus subtilis, UniProt P42318); experiment: as above; details: covalent, redox-sensitive Cys
T5 construct: native, in treated cells, shotgun proteomics of tryptic peptides
T5 sequence (P42318 1-378): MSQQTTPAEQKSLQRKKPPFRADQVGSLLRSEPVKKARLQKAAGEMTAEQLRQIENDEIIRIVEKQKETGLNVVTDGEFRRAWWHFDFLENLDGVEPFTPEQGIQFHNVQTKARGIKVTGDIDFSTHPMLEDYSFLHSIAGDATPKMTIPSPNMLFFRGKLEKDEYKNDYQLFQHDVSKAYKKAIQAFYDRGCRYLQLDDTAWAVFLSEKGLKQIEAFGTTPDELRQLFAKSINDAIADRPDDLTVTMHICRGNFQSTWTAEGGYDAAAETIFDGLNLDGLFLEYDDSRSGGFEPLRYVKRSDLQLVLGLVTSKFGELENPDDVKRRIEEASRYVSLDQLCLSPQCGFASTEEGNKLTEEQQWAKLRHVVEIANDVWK

TufA (EF-Tu) = target: T6, TufA (EF-Tu) (Bacillus subtilis, UniProt P33166); experiment: as above; details: covalent, Cys83
T6 construct: gene tuf; native, in treated cells, shotgun proteomics of tryptic peptides
T6 sequence (P33166 2-396): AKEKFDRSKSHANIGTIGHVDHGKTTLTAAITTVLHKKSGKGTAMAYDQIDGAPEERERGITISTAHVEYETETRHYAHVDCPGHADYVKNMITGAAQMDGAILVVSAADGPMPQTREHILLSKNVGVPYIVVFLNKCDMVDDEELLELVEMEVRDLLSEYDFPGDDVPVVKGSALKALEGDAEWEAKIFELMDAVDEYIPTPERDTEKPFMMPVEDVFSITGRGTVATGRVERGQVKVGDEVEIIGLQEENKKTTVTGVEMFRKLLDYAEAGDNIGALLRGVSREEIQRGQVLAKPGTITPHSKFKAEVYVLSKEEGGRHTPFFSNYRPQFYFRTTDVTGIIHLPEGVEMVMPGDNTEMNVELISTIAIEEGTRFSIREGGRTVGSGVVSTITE

GlnA = target: T7, GlnA (Bacillus subtilis, UniProt P12425); experiment: as above; details: covalent
T7 construct: native, in treated cells, shotgun proteomics of tryptic peptides
T7 sequence (P12425 2-444): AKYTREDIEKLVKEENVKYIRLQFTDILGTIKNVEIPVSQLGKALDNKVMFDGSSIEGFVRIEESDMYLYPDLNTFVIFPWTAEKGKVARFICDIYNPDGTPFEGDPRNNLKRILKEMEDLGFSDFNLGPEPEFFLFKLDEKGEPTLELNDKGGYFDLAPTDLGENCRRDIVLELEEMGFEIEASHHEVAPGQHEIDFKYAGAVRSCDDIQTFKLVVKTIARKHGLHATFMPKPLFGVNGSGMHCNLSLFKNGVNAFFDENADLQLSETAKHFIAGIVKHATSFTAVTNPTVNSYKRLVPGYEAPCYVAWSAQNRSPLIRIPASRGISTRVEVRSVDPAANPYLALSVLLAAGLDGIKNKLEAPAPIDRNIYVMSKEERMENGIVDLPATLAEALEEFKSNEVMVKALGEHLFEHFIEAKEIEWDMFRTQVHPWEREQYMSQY

MetE = target: T8, MetE (Bacillus subtilis, UniProt P80877); experiment: as above; details: covalent, Cys719/Cys730
T8 construct: native, in treated cells, shotgun proteomics of tryptic peptides
T8 sequence (P80877 2-762): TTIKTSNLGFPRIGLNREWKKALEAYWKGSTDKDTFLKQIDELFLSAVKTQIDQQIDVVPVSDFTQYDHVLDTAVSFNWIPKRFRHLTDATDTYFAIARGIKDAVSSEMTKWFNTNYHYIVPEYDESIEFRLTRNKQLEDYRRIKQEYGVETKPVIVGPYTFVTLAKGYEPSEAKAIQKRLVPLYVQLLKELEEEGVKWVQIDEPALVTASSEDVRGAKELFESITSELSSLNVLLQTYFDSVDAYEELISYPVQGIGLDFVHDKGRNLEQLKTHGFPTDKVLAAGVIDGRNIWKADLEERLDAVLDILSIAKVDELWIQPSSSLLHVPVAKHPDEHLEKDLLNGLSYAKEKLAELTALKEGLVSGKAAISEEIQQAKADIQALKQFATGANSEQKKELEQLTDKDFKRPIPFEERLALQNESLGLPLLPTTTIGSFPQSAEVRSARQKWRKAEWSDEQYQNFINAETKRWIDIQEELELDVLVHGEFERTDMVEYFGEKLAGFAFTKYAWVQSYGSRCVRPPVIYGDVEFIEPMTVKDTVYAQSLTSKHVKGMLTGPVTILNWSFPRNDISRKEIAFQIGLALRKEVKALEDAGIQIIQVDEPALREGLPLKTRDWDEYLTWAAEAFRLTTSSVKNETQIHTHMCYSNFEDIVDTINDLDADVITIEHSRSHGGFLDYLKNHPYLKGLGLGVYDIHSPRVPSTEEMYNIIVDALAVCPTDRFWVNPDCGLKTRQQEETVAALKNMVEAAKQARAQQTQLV

OhrR-FLAG = target: T9, OhrR-FLAG (Bacillus subtilis, UniProt O34777); experiment: IP and Orbitrap LC-MS/MS of S-thioallylated Cys peptides (+[…] Da); details: covalent; cells treated with 90 µM allicin, 30 min; Cys15 (b28 names the redox-sensing residue Cys22)
T9 construct: FLAG-tagged, expressed in B. subtilis, immunoprecipitated from allicin-treated cells
T9 sequence (O34777 1-147): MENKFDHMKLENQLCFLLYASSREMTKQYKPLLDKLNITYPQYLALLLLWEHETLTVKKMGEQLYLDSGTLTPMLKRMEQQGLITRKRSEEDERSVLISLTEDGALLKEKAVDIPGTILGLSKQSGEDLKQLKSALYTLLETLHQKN

YodB = target: T10, YodB (Bacillus subtilis, UniProt O34844); experiment: as above; details: covalent; allicin-treated cells; Cys101 (Cys6 peptide not identified)
T10 construct: native, immunoprecipitated with polyclonal antibody from allicin-treated cells
T10 sequence (O34844 whole entry): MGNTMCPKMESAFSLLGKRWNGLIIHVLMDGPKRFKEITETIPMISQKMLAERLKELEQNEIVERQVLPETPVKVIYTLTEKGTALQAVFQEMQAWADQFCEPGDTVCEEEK

CatR = target: T11, CatR (Bacillus subtilis, UniProt O32238); experiment: as above; details: covalent; allicin-treated cells; Cys7
T11 construct: gene yvaP; native, immunoprecipitated with polyclonal antibody from allicin-treated cells
T11 sequence (O32238 1-108): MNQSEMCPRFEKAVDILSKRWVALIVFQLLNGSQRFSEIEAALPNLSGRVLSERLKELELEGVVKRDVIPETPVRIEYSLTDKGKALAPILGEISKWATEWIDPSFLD

HypR = target: T12, HypR (Bacillus subtilis, UniProt P37486); experiment: as above; details: covalent; allicin-treated cells; Cys14
T12 construct: gene yybR; native, immunoprecipitated with polyclonal antibody from allicin-treated cells
T12 sequence (P37486 whole entry): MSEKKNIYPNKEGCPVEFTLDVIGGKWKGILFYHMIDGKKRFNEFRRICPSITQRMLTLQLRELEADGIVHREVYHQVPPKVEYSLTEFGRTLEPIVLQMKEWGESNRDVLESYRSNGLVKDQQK

[1] = cells treated with 92 µM DAS4, 30 min
[2] = cells treated with 90 µM allicin, 30 min

`C=CCSSSSCC=C` [DAS4] was tested, and the “shotgun Orbitrap LC-MS/MS of S-thioallylated Cys peptides (+72 Da)” value (shortened to “shotgun Orbitrap LC-MS/MS”) (SerA; [1]) was “SerA, and PpaC were modified at their redox-sensitive Cys residues by allicin and DAS4”, the “shotgun Orbitrap LC-MS/MS” value (PpaC; [1]) was “pyrophosphatase PpaC were S-thioallylated by allicin and DAS4 in B. subtilis” and the “shotgun Orbitrap LC-MS/MS” value (GuaB; [1]) was “GuaB and PpaC were S-thioallylated at their conserved redox-sensing active sites Cys308 and Cys158”. For the same compound, the “shotgun Orbitrap LC-MS/MS” value (FusA (EF-G); [1]) was “Cys83 of TufA, Cys239 of FusA”, the “shotgun Orbitrap LC-MS/MS” value (YxjG; [1]) was “TufA, MetE, YxjG, GuaB, SerA, and PpaC were modified at their redox-sensitive Cys residues” and the “shotgun Orbitrap LC-MS/MS” value (TufA (EF-Tu); [1]) was “modified at their conserved Cys residues, e.g., Cys83 of TufA”. The “shotgun Orbitrap LC-MS/MS” value (GlnA; [1]) was “MetE, YxjG, MetI, AroA, ArgJ, CarB, GlnA” and the “shotgun Orbitrap LC-MS/MS” value (MetE; [1]) was “Cys239 of FusA, and Cys719/Cys730 of MetE”.

`C=CCS[S+]([O-])CC=C` (centres unmarked) [allicin] was tested, and the “shotgun Orbitrap LC-MS/MS” value (SerA; [2]) was “SerA, and PpaC were modified at their redox-sensitive Cys residues by allicin and DAS4”, the “shotgun Orbitrap LC-MS/MS” value (PpaC; [2]) was “pyrophosphatase PpaC were S-thioallylated by allicin and DAS4 in B. subtilis” and the “shotgun Orbitrap LC-MS/MS” value (GuaB; [2]) was “GuaB and PpaC were S-thioallylated at their conserved redox-sensing active sites Cys308 and Cys158”. The “IP and Orbitrap LC-MS/MS of S-thioallylated Cys peptides (+72 Da)” value (shortened to “IP and Orbitrap LC-MS/MS”) (OhrR-FLAG) was “modified by S-thioallylation for OhrR (Cys15), HypR (Cys14), and CatR (Cys7)”, the “shotgun Orbitrap LC-MS/MS” value (FusA (EF-G); [2]) was “Cys83 of TufA, Cys239 of FusA” and the “IP and Orbitrap LC-MS/MS” value (YodB) was “For the YodB-repressor, only Cys101 was S-thioallylated”. The “IP and Orbitrap LC-MS/MS” value (CatR) was “modified by S-thioallylation for OhrR (Cys15), HypR (Cys14), and CatR (Cys7)”, the “shotgun Orbitrap LC-MS/MS” value (YxjG; [2]) was “TufA, MetE, YxjG, GuaB, SerA, and PpaC were modified at their redox-sensitive Cys residues” and the “shotgun Orbitrap LC-MS/MS” value (TufA (EF-Tu); [2]) was “modified at their conserved Cys residues, e.g., Cys83 of TufA”. For the same compound, the “IP and Orbitrap LC-MS/MS” value (HypR) was “modified by S-thioallylation for OhrR (Cys15), HypR (Cys14), and CatR (Cys7)”, the “shotgun Orbitrap LC-MS/MS” value (GlnA; cells treated with 90 µM allicin, 30 min, conserved Cys) was “MetE, YxjG, MetI, AroA, ArgJ, CarB, GlnA” and the “shotgun Orbitrap LC-MS/MS” value (MetE; [2]) was “Cys239 of FusA, and Cys719/Cys730 of MetE”.
